Source: patent publication US20230416232A1, “PYRIMIDINE COMPOUNDS, COMPOSITIONS, AND MEDICINAL APPLICATIONS THEREOF” (Blueprint Medicines Corporation, priority 2020, published 2023)

How the values were obtained:
Type in all cases: cell-based
[1] = target: EGFR(D770_N771insSVD) expressing Ba/F3 stable cell line (Homo sapiens, UniProt P00533, DUP768-770, cells depend on it); experiment: Cellular proliferation (Alamar Blue) assay, EGFR(D770_N771insSVD) Ba/F3; settings: 72 hr, read-out: D770 IC50
Description: (§1) Cell line details: • 1. EGFR(D770_N771insSVD) expressing Ba/F3 stable cell line • 2. EGFR (A767_dupASV) expressing Ba/F3 stable cell line • 3. A431 cells • 4. EGFR (H773insNPH) expressing Ba/F3 stable cell line • 5. HER2 (A775_G776insYVMA) expressing Ba/F3 stable cell line
(§2) • 1. Seed cells at 5000 for A431 and 15,000 cells for Ba/F3 in 100 μL/well in complete media (for A431: DMEM with 10% FBS and for Ba/F3 cells: RPMI with 10% FBS) in 96-well tissue culture plate. Leave outer wells without cells for background measurements. Incubate at 37 degree Celsius in 5% CO2 humidified incubator for 16-18 hours. • 2. Add 0.025 ml of 5X concentration compound dilution or DMSO control. Final compound concentration range is 10-0.0005 μM prepared in 3-fold serial dilutions. Incubate for 72 hr at 37 degree Celsius in 5% CO2 humidified incubator. • 3. Add 0.0125 ml Alamar Blue™ reagent to each well with multi-channel pipette and tap gently on each side of the plate to mix. Incubate for 3 hours at 37 degree Celsius in 5% CO2 humidified incubator. • 4. […] Data analysis was performed using XLfit 5.5.0.5.

[2] = target: EGFR (A767_dupASV) expressing Ba/F3 stable cell line (Homo sapiens, UniProt P00533, DUP767-769, cells depend on it); experiment: Cellular proliferation (Alamar Blue) assay, EGFR (A767_dupASV) Ba/F3; settings: 72 hr, read-out: A767 IC50
Chain of EGFR (A767_dupASV) expressing Ba/F3 stable cell line (P00533 with tags, fused parts or gaps DUP767-769): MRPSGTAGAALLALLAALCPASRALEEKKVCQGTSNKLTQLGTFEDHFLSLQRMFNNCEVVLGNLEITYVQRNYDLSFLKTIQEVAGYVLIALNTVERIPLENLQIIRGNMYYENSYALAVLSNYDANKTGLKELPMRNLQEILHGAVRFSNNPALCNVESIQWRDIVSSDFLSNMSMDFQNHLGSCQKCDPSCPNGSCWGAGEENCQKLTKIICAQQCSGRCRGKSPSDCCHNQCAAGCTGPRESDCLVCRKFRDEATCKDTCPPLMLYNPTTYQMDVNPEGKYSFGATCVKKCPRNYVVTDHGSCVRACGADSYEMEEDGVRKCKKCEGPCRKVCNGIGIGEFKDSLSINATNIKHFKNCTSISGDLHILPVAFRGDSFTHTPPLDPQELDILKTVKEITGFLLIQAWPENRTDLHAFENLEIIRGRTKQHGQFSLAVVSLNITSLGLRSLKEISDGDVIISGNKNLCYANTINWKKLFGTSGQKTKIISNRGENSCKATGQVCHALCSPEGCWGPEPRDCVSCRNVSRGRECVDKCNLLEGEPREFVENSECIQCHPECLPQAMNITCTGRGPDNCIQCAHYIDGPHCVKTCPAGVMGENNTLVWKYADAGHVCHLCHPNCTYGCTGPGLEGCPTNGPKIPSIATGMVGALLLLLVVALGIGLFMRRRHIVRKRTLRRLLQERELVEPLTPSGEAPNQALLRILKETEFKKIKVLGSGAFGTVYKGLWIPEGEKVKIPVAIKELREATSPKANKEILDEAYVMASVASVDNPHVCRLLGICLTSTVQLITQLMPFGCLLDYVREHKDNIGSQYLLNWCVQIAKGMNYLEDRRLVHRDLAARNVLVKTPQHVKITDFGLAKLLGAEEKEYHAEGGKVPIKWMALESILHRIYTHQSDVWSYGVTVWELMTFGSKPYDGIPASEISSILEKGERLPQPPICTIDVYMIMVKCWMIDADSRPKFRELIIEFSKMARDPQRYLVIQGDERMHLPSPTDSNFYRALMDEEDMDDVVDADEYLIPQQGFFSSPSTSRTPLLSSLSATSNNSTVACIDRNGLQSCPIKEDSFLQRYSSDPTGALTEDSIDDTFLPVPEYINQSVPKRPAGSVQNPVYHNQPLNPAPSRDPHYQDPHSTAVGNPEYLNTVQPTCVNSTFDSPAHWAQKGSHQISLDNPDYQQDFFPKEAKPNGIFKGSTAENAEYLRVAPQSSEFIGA
Description: as §1, §2

A431 cells = experiment: Cellular proliferation (Alamar Blue) assay, A431 cells; settings: Homo sapiens, A-431, 72 h, A431 cells; 72 hr; Alamar Blue; read-out: A431 IC50
Description: as §2

[3] = target: HER2 (A775_G776insYVMA) expressing Ba/F3 stable cell line (Homo sapiens, UniProt P04626, DUP772-775, cells depend on it); experiment: Cellular proliferation (Alamar Blue) assay, HER2 (A775_G776insYVMA) Ba/F3; settings: HER2 (A775_G776insYVMA) Ba/F3 cells; 72 hr; Alamar Blue; read-out: YVMA IC50
Chain of HER2 (A775_G776insYVMA) expressing Ba/F3 stable cell line (P04626 with tags, fused parts or gaps DUP772-775): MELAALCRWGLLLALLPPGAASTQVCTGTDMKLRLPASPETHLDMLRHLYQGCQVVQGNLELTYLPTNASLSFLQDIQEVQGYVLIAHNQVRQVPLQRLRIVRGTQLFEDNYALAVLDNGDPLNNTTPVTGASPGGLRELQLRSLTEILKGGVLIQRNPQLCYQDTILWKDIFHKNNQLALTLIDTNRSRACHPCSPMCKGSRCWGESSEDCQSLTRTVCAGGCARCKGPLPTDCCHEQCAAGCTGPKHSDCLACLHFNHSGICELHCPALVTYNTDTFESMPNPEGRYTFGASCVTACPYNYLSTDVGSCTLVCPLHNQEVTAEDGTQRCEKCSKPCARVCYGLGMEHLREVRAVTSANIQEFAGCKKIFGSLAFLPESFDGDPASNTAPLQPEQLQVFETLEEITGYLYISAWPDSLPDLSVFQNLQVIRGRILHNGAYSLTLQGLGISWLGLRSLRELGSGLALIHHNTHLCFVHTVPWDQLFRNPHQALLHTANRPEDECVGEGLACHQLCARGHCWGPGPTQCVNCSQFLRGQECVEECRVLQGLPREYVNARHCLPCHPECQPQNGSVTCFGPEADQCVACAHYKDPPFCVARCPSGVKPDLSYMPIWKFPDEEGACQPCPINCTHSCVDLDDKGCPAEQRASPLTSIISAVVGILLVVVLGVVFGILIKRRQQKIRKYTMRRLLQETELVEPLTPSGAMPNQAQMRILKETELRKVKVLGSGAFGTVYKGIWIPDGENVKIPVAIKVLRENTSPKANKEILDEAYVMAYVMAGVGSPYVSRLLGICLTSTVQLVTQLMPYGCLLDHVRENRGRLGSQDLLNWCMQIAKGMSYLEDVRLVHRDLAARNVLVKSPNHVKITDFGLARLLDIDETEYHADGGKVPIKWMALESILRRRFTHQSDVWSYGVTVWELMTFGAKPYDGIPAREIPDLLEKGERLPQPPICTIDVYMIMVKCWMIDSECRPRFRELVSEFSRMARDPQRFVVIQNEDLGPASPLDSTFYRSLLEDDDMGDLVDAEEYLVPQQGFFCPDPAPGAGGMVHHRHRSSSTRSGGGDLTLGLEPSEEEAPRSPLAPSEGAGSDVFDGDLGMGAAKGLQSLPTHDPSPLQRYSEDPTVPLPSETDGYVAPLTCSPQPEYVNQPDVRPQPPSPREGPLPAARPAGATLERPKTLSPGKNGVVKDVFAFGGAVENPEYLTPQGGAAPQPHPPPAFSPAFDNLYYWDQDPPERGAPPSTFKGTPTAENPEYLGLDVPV
Description: as §1, §2

Chain of EGFR(D770_N771insSVD) expressing Ba/F3 stable cell line (P00533 with tags, fused parts or gaps DUP768-770): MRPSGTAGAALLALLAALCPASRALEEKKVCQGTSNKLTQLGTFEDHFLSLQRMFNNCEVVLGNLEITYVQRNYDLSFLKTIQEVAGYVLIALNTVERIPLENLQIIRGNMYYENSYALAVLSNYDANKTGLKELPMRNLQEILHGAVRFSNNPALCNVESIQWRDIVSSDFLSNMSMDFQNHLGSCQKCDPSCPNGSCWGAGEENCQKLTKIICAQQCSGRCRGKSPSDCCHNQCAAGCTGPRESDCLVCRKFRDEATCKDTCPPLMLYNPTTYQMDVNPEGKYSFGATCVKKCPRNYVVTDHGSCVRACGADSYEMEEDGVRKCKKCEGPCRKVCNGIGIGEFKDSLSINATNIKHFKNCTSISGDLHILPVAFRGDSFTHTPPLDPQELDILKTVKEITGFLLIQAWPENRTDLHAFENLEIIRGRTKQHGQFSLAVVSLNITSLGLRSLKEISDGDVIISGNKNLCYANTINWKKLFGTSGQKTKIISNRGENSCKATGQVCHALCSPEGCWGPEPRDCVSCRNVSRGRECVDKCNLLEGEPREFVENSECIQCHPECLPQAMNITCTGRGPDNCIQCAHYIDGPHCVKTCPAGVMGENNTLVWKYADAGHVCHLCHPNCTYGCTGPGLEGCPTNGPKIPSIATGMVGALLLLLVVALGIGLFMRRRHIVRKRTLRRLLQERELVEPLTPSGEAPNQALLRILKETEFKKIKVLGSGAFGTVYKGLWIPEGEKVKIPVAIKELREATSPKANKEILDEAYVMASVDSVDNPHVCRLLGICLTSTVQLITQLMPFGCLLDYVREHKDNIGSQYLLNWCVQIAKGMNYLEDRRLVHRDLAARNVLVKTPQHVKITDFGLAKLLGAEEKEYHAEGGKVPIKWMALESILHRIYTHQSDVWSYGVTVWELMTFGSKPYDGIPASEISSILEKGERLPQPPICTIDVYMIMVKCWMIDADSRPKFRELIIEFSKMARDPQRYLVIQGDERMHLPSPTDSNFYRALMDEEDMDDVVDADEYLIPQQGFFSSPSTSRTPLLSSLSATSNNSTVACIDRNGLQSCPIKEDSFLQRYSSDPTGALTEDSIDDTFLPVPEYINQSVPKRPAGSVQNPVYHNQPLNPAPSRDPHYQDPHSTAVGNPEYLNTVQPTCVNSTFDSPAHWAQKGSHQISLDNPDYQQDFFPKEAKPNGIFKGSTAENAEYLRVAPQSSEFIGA

Row | Compound | GI50 [1] [nM] | GI50 [2] [nM] | IC50 (A431 cells) [nM] | GI50 [3] [nM]
1 | C=CC(=O)Nc1ccc(F)c(Nc2nc(Nc3cnn(C)c3)ncc2-c2ccc(OC)c(C(F)(F)F)c2)c1 [Compound 22, N-(4-fluoro-3-((5-(4-methoxy-3-(trifluoromethyl)phenyl)-2-((1-methyl-1H-pyrazol-4-yl)amino)pyrimidin-4-yl)amino)phenyl)acrylamide] | 329 | 428 | > 10000 | 890
2 | C=CC(=O)Nc1ccc(F)c(Nc2nc(Nc3cnn(C)c3)ncc2-c2ccc(N3CC(N(C)C)C3)c(F)c2)c1 [Compound 83, N-(3-((5-(4-(3-(dimethylamino)azetidin-1-yl)-3-fluorophenyl)-2-((1-methyl-1H-pyrazol-4-yl)amino)pyrimidin-4-yl)amino)-4-fluorophenyl)acrylamide] | 1010 | 376 | 1060 | –
3 | CN(C)C/C=C/C(=O)Nc1ccc(F)c(Nc2nc(Nc3cnn(C)c3)ncc2-c2ccc3c(c2)OCC3)c1 [Compound 178, (E)-N-(3-((5-(2,3-dihydrobenzofuran-6-yl)-2-((1-methyl-1H-pyrazol-4-yl)amino)pyrimidin-4-yl)amino)-4-fluorophenyl)-4-(dimethylamino)but-2-enamide] | 927 | 722 | 350 | –
4 | C=CC(=O)Nc1ccc(F)c(Nc2nc(Nc3cnn(C)c3)ncc2-c2cnc(F)c(F)c2)c1 [Compound 29, N-(3-((5-(5,6-difluoropyridin-3-yl)-2-((1-methyl-1H-pyrazol-4-yl)amino)pyrimidin-4-yl)amino)-4-fluorophenyl)acrylamide] | 8 | 7 | 20 | 21
5 | C=CC(=O)Nc1ccc(F)c(Nc2nc(Nc3cnn(C)c3)ncc2-c2cc(F)c(Cl)c(F)c2)c1 [Compound 158, N-(3-((5-(4-chloro-3,5-difluorophenyl)-2-((1-methyl-1H-pyrazol-4-yl)amino)pyrimidin-4-yl)amino)-4-fluorophenyl)acrylamide] | 11 | 15 | 10 | 40
6 | CN(C)C/C=C/C(=O)Nc1ccc(F)c(Nc2nc(Nc3cnn(C)c3)ncc2-c2cc(F)cc(F)c2)c1 [Compound 117, (E)-N-(3-((5-(3,5-difluorophenyl)-2-((1-methyl-1H-pyrazol-4-yl)amino)pyrimidin-4-yl)amino)-4-fluorophenyl)-4-(dimethylamino)but-2-enamide] | 135 | 328 | 668 | 141
7 | C=CC(=O)Nc1ccc(F)c(Nc2nc(Nc3cnn(C)c3)ncc2-c2ccc(C(F)(F)F)cc2OC)c1 [Compound 10, N-(4-fluoro-3-((5-(2-methoxy-4-(trifluoromethyl)phenyl)-2-((1-methyl-1H-pyrazol-4-yl)amino)pyrimidin-4-yl)amino)phenyl)acrylamide] | 3940 | 3230 | > 10000 | –
8 | C=CC(=O)Nc1cccc(Nc2nc(Nc3cnn(C)c3)ncc2-c2cc(F)c(F)c(F)c2)c1 [Compound 148, N-(3-((2-((1-methyl-1H-pyrazol-4-yl)amino)-5-(3,4,5-trifluorophenyl)pyrimidin-4-yl)amino)phenyl)acrylamide] | 10 | – | 29 | 45
9 | C=CC(=O)Nc1ccc(F)c(Nc2nc(Nc3cnn(C)c3)ncc2-c2ccc(F)cc2Cl)c1 [Compound 12, N-(3-((5-(2-chloro-4-fluorophenyl)-2-((1-methyl-1H-pyrazol-4-yl)amino)pyrimidin-4-yl)amino)-4-fluorophenyl)acrylamide] | 363 | 919 | – | –
10 | C=CC(=O)Nc1ccc(F)c(Nc2nc(Nc3cnn(C)c3)ncc2-c2ccc(OC)c(OC)c2)c1 [Compound 2, N-(3-((5-(3,4-dimethoxyphenyl)-2-((1-methyl-1H-pyrazol-4-yl)amino)pyrimidin-4-yl)amino)-4-fluorophenyl)acrylamide] | 1050 | 896 | > 10000 | –
11 | C=CC(=O)Nc1ccc(F)c(Nc2nc(Nc3cnn(C)c3)ncc2-c2cc(F)cc(OCC(F)(F)F)c2)c1 [Compound 176, N-(4-fluoro-3-((5-(3-fluoro-5-(2,2,2-trifluoroethoxy)phenyl)-2-((1-methyl-1H-pyrazol-4-yl)amino)pyrimidin-4-yl)amino)phenyl)acrylamide] | 1130 | 859 | – | > 10000
12 | C=CC(=O)Nc1ccc(F)c(Nc2nc(Nc3cnn(C)c3)ncc2-c2ccc(N3CCN(C)CC3)c(F)c2)c1 [Compound 81, N-(4-fluoro-3-((5-(3-fluoro-4-(4-methylpiperazin-1-yl)phenyl)-2-((1-methyl-1H-pyrazol-4-yl)amino)pyrimidin-4-yl)amino)phenyl)acrylamide] | 906 | 343 | 3010 | –
13 | C=CC(=O)Nc1ccc(F)c(Nc2nc(Nc3cnn(C)c3)ncc2-c2ccc(N3CC(OC)C3)c(F)c2)c1 [Compound 79, N-(4-fluoro-3-((5-(3-fluoro-4-(3-methoxyazetidin-1-yl)phenyl)-2-((1-methyl-1H-pyrazol-4-yl)amino)pyrimidin-4-yl)amino)phenyl)acrylamide] | 312 | 248 | 105 | –
14 | [2H]C([2H])([2H])n1cc(Nc2ncc(-c3ccc(Br)c(F)c3)c(Nc3cc(NC(=O)C=C)ccc3F)n2)cn1 [Compound 169, N-(3-((5-(4-bromo-3-fluorophenyl)-2-((1-(methyl-d3)-1H-pyrazol-4-yl)amino)pyrimidin-4-yl)amino)-4-fluorophenyl)acrylamide] | 36 | – | 11 | 147
15 | O=C(O)C(F)(F)F.[2H]C([2H])([2H])n1cc(Nc2ncc(-c3cnc(F)c(F)c3)c(Nc3cc(NC(=O)C=C)ccc3F)n2)cn1 [Compound 101, N-(3-((5-(5,6-difluoropyridin-3-yl)-2-((1-(methyl-d3)-1H-pyrazol-4-yl)amino)pyrimidin-4-yl)amino)-4-fluorophenyl)acrylamide] | 15 | – | – | –
16 | C=CC(=O)Nc1ccc(F)c(Nc2nc(Nc3cn(C)nc3Cl)ncc2-c2ccc(F)c(Cl)c2)c1 [Compound 52, N-(3-((2-((3-chloro-1-methyl-1H-pyrazol-4-yl)amino)-5-(3-chloro-4-fluorophenyl)pyrimidin-4-yl)amino)-4-fluorophenyl)acrylamide] | 104 | 307 | 194 | –
17 | C=CC(=O)Nc1ccc(F)c(Nc2nc(Nc3cnn(C)c3)ncc2-c2cc(Cl)ccc2OC)c1 [Compound 23, N-(3-((5-(5-chloro-2-methoxyphenyl)-2-((1-methyl-1H-pyrazol-4-yl)amino)pyrimidin-4-yl)amino)-4-fluorophenyl)acrylamide] | 2730 | 2760 | 2890 | –
18 | C=CC(=O)Nc1ccc(F)c(Nc2nc(Nc3cnn(C)c3)ncc2-c2ccc(N(C)CCN(C)C)c(F)c2)c1 [Compound 86, N-(3-((5-(4-((2-(dimethylamino)ethyl)(methyl)amino)-3-fluorophenyl)-2-((1-methyl-1H-pyrazol-4-yl)amino)pyrimidin-4-yl)amino)-4-fluorophenyl)acrylamide] | 2940 | 2240 | 3580 | –
19 | C=CC(=O)Nc1ccc(F)c(Nc2nc(Nc3cnn(C)c3)ncc2-c2ccc3c(c2)CCN3C)c1 [Compound 59, N-(4-fluoro-3-((2-((1-methyl-1H-pyrazol-4-yl)amino)-5-(1-methylindolin-5-yl)pyrimidin-4-yl)amino)phenyl)acrylamide] | 300 | 957 | 575 | –
20 | [2H]C([2H])=CC(=O)Nc1ccc(F)c(Nc2nc(Nc3cnn(C)c3)ncc2-c2cnc(F)c(F)c2)c1 [Compound 103, N-(3-((5-(5,6-difluoropyridin-3-yl)-2-((1-methyl-1H-pyrazol-4-yl)amino)pyrimidin-4-yl)amino)-4-fluorophenyl)acrylamide-3,3-d2] | 25 | 14 | 20 | –
21 | C=CC(=O)Nc1ccc(F)c(Nc2nc(Nc3cnn(C)c3)ncc2-c2cc(F)cc(N(C)C)c2)c1 [Compound 42, N-(3-((5-(3-(dimethylamino)-5-fluorophenyl)-2-((1-methyl-1H-pyrazol-4-yl)amino)pyrimidin-4-yl)amino)-4-fluorophenyl)acrylamide] | 942 | 737 | 4510 | –
22 | C=C(F)C(=O)Nc1ccc(F)c(Nc2nc(Nc3cnn(C)c3)ncc2-c2ccc(Br)c(F)c2)c1 [Compound 177, N-(3-((5-(4-bromo-3-fluorophenyl)-2-((1-methyl-1H-pyrazol-4-yl)amino)pyrimidin-4-yl)amino)-4-fluorophenyl)-2-fluoroacrylamide] | 939 | 1730 | 326 | –
